According to publication PMC7145288, “New Peptide-Based Pharmacophore Activates 20S Proteasome” (Molecules, 2020):
Entries after “also recorded” stand apart in the source; their conditions may differ.

How the values were obtained:
[1] = molecular target: T1, core proteasome, trypsin-like (T-L) activity (Homo sapiens, UniProt P25787+P60900); experiment: T-L peptidase activity of latent 20S proteasome (Boc-LRR-AMC); assay type: biochemical; conditions: 100 μM Boc-LRR-AMC, n = 3–4
T1 construct: Human housekeeping core (20S) proteasome purified from erythrocytes; purchased Boston Biochem, Inc. or Enzo Life Sciences, Inc; host or cells: human erythrocytes (natural source)
Procedure: Human housekeeping core (20S) proteasome purified from erythrocytes was purchased from Boston Biochem, Inc. (Cambridge, MA) or from Enzo Life Sciences, Inc. (Farmingdale, NY). Multiple batches of the proteasomes were used and performed reproducibly. The stock proteasome was diluted to 0.2 mg/mL working solution in “dilution buffer” (50 mM Tris/HCl, pH 8, 20% glycerol). The following model peptide substrates, all releasing fluorescent 7-amino-4-methylcoumarin (AMC) reporter group after cleavage, were used: succinyl-LeuLeuValTyr-AMC (for the ChT-L peptidase; SucLLVY-AMC; Bachem Bioscience Inc., Philadelphia, PA), butoxycarbonyl-LeuArgArg-AMC (T-L; Bachem Bioscience Inc., Philadelphia, PA) and carbobenzoxy- LeuLeuGlu-AMC (PGPH; Enzo Life Sciences Inc., Farmingdale, NY). The substrates were used at concentration of 50 μM (ChT-L) or 100 μM (T-L, PGPH). […] After mixing, the plate was transferred to a Fluoroskan Ascent plate reader (Thermo Fisher Scientific Inc., Waltham, MA) for 1 h (37 °C), with fluorescence readouts once per minute. […] The reaction rates were calculated from a linear segment of kinetic curves constructed from measurements in 1-min intervals. Reaction rates were calculated using a linear fit performed with the Slope Analyser and Enzyme Kinetics applications launched within Origin Pro 2019 (OriginLab Corporation, Northampton, MA). […]

[2] = tested on: proteasome ChT-L activity in SK-N-SH (ATCC HTB-11) cell lysates; experiment: ChT-L proteasome activity in lysates of treated SK-N-SH cells; assay type: cell-based, human; conditions: SK-N-SH cells; for Proteasome ChT-L activity in lysates of treated cells versus control lysates (in words): 1 µM peptide, 24 h, 1 μg lysate, 50 μM Suc-LLVY-AMC, n = 3–4
Procedure: […] The content of live cells was determined by the Trypan Blue-exclusion assay. The cells were harvested, washed twice in PBS, resuspended in dilution buffer (see above) and stored in −80 °C. To prepare lysates the thawed preparations were vortexed with glass beads and centrifuged for 5 min 5000× g (4 °C). The supernatant was centrifuged for 20 min 14,000× g (4 °C). The resulting supernatant—“crude lysate” was diluted to 1 mg/mL of total protein with dilution buffer. 1 μg of lysate per assay (reaction buffer: 50 mM Tris/HCl pH 8, 0.1 mM MgCl2, 0.2 mM ATP, 0.1 mM dithiothreitol, 50 μM Suc-LLVY-AMC) was used for determination of ChT-L activity in a 96-well format, as above.

[3] = tested on: animal models of Alzheimer's disease; conditions: ref 15 (Chocron et al.); cited from earlier work
Source text: In the light of significant proteasome-enhancing effects of TAT peptides observed both in cellulo (Figure 5 and [15]) and in vivo [15], there is a crucial question of how they influence proteolytic activity in the most widespread form of the proteasome, the 26S holoenzyme. The most-explored TAT compounds are proposed to dock in the α1/α2 pocket, which, alongside the α5/α6 pocket, is permanently occupied in all conformational forms of the 26S assembly. Therefore, activation of the core already decorated with two 19S modules seems excluded. Still, in our in vitro experiments, a signif ...

SMILES	Effect on T-L activity (in words) [1]	Proteasome ChT-L activity in lysates of treated cells versus control lysates (in words) [2]	Proteins with increased turnover on treatment [3]	Dose dependent proteasome activation, 4 h versus 24 h exposure (in words) ([2]; 0.5 or 1.0 µM, 4 or 24 h)
NCCCC[C@H](NC(=O)[C@H](CCCCN)NC(=O)[C@H](CCCCN)NC(=O)c1cc(NC(=O)[C@H](CCCCN)NC(=O)[C@H](CCCCN)NC(=O)[C@@H](N)CCCCN)cc(NC(=O)[C@H](CCCCN)NC(=O)[C@H](CCCCN)NC(=O)[C@@H](N)CCCCN)c1)C(=O)O [(8)]	weak inhibitory effects; also recorded: did not seem to significantly affect	significantly higher than activity in control lysates	APP and β secretase	
N=C(N)NCCC[C@H](NC(=O)CN)C(=O)N[C@@H](CCCCN)C(=O)N[C@@H](CCCCN)C(=O)N[C@@H](CCCNC(=N)N)C(=O)N[C@@H](CCCNC(=N)N)C(=O)N[C@@H](CCC(N)=O)C(=O)N1Cc2ccccc2C[C@H]1C(=O)N1[C@@H](C(=O)N[C@@H](CCCNC(=N)N)C(=O)N2CCC[C@H]2C(=O)N[C@@H](CO)C(=O)O)C[C@H]2CCCC[C@H]21 [(5)]	weak inhibitory effects; also recorded: did not seem to significantly affect	significantly higher than activity in control lysates	APP and β secretase	substantially stronger after 4 h exposure than after 24 h
